Measurements as given in ChEMBL document CHEMBL3885861, “Open TG-GATES”.

Species: Rattus norvegicus
Experiment: Open TG-GATES - Regimen: Single
Type: toxicity, organism-based, Sprague-Dawley
Set-up: regimen Single, gender Male, age 6 weeks
Settings: in vivo, po, 100 mg/kg, route gavage, dose level Low; for APTT / Bas / Eos / Fbg / Hb / Ht / Lym / MCH / MCHC / MCV / Mono / Neu / PT / Plat / RBC / Ret / WBC: tissue Blood; for KIDNEY_L / KIDNEY_R / KIDNEY_TOTAL: tissue Kidney; for LIVER: tissue Liver; for A/G / ALP / ALT / AST / BUN / CRE / Ca / Cl / DBIL / GLC / IP / K / LDH / Na / PL / RALB / TBIL / TC / TG / TP / gamma-GTP: tissue Plasma

Work on CC(S)C(=O)NCC(=O)O (configuration not stated) [TIOPRONIN] yielded a TERMINAL_BW (3 h) of 208 g, an APTT (3 h) of 22.4 s and a Bas (3 h) of 0%. For the same molecule, the Eos (3 h) was 0.6%, the Fbg (3 h) was 295.6 mg/dL and the Hb (3 h) was 13 g/dL. For the same molecule, the Ht (3 h) was 39.9%, the Lym (3 h) was 79.2% and the MCH (3 h) was 20 pg. For the same molecule, the MCHC (3 h) was 32.6%, the MCV (3 h) was 61.6 fL and the Mono (3 h) was 2.4%. It also gave a Neu (3 h) of 16.8%, a PT (3 h) of 16.5 s and a Plat (3 h) of 113.3 x10_4/uL. For the same molecule, the RBC (3 h) was 649.2 x10_4/ul, the Ret (3 h) was 7.6% and the WBC (3 h) was 73.6 x10_2/uL. The KIDNEY_L (3 h) was 0.9 g, the KIDNEY_R (3 h) was 0.9 g and the KIDNEY_TOTAL (3 h) was 1.8 g. It also gave an LIVER (3 h) of 9 g, an A/G (3 h) of 1.2 and an ALP (3 h) of 1568.4 IU/L. The ALT (3 h) was 48.2 IU/L, the AST (3 h) was 75.8 IU/L and the BUN (3 h) was 10.2 mg/dL. The CRE (3 h) was 0.1 mg/dL, the Ca (3 h) was 10.7 mg/dL and the Cl (3 h) was 106.8 meq/L. The DBIL (3 h) was 0 mg/dL, the GLC (3 h) was 185.6 mg/dL and the IP (3 h) was 8.6 mg/dL. For the same molecule, the K (3 h) was 4.1 meq/L, the LDH (3 h) was 172.8 IU/L and the Na (3 h) was 142.8 meq/L. The PL (3 h) was 117.6 mg/dL, the RALB (3 h) was 2.9 g/dL and the TBIL (3 h) was 0.02 mg/dL. The TC (3 h) was 68.6 mg/dL, the TG (3 h) was 49.6 mg/dL and the TP (3 h) was 5.4 g/dL. It also gave a gamma-GTP (3 h) of 1.8 IU/L, a TERMINAL_BW (6 h) of 205.7 g and an APTT (6 h) of 22.4 s. The Bas (6 h) was 0%, the Eos (6 h) was 1% and the Fbg (6 h) was 301.8 mg/dL. The Hb (6 h) was 12.9 g/dL, the Ht (6 h) was 39.5% and the Lym (6 h) was 75.8%. For the same molecule, the MCH (6 h) was 20.1 pg, the MCHC (6 h) was 32.6% and the MCV (6 h) was 61.6 fL. The Mono (6 h) was 2.6%, the Neu (6 h) was 20.2% and the PT (6 h) was 16 s. The Plat (6 h) was 118.6 x10_4/uL, the RBC (6 h) was 641.6 x10_4/ul and the Ret (6 h) was 7.7%. It also gave a WBC (6 h) of 93.1 x10_2/uL, a KIDNEY_L (6 h) of 0.9 g and a KIDNEY_R (6 h) of 0.9 g. For the same molecule, the KIDNEY_TOTAL (6 h) was 1.9 g, the LIVER (6 h) was 8.8 g and the A/G (6 h) was 1.2. It also gave an ALP (6 h) of 1456.8 IU/L, an ALT (6 h) of 39.6 IU/L and an AST (6 h) of 70.8 IU/L. It also gave a BUN (6 h) of 8.4 mg/dL, a CRE (6 h) of 0.1 mg/dL and a Ca (6 h) of 10.6 mg/dL. For the same molecule, the Cl (6 h) was 105.8 meq/L, the DBIL (6 h) was 0 mg/dL and the GLC (6 h) was 185.2 mg/dL. The IP (6 h) was 9.8 mg/dL, the K (6 h) was 4.3 meq/L and the LDH (6 h) was 154.6 IU/L. The Na (6 h) was 144 meq/L, the PL (6 h) was 125.6 mg/dL and the RALB (6 h) was 2.9 g/dL. It also gave a TBIL (6 h) of 0.018 mg/dL, a TC (6 h) of 76.4 mg/dL and a TG (6 h) of 50.8 mg/dL. It also gave a TP (6 h) of 5.4 g/dL, a gamma-GTP (6 h) of 2 IU/L and a TERMINAL_BW (9 h) of 205.8 g. The APTT (9 h) was 22.6 s, the Bas (9 h) was 0% and the Eos (9 h) was 0.2%. The Fbg (9 h) was 291.8 mg/dL, the Hb (9 h) was 12.5 g/dL and the Ht (9 h) was 39.1%. It also gave a Lym (9 h) of 80.6%, an MCH (9 h) of 20.4 pg and an MCHC (9 h) of 32%. The MCV (9 h) was 63.7 fL, the Mono (9 h) was 1.8% and the Neu (9 h) was 16.2%. For the same molecule, the PT (9 h) was 16.4 s, the Plat (9 h) was 114 x10_4/uL and the RBC (9 h) was 614.2 x10_4/ul. The Ret (9 h) was 8.3%, the WBC (9 h) was 72.6 x10_2/uL and the KIDNEY_L (9 h) was 0.9 g. For the same molecule, the KIDNEY_R (9 h) was 0.9 g, the KIDNEY_TOTAL (9 h) was 1.8 g and the LIVER (9 h) was 8.5 g. For the same molecule, the A/G (9 h) was 1.1, the ALP (9 h) was 1275.6 IU/L and the ALT (9 h) was 39.2 IU/L. It also gave an AST (9 h) of 70.2 IU/L, a BUN (9 h) of 12.8 mg/dL and a CRE (9 h) of 0.1 mg/dL. It also gave a Ca (9 h) of 10.6 mg/dL, a Cl (9 h) of 106.4 meq/L and a DBIL (9 h) of 0.002 mg/dL. For the same molecule, the GLC (9 h) was 190.2 mg/dL, the IP (9 h) was 9.5 mg/dL and the K (9 h) was 4.2 meq/L. For the same molecule, the LDH (9 h) was 142.8 IU/L, the Na (9 h) was 143.8 meq/L and the PL (9 h) was 119.6 mg/dL. It also gave an RALB (9 h) of 2.8 g/dL, a TBIL (9 h) of 0.01 mg/dL and a TC (9 h) of 68.8 mg/dL. It also gave a TG (9 h) of 48.4 mg/dL, a TP (9 h) of 5.4 g/dL and a gamma-GTP (9 h) of 1.2 IU/L. The TERMINAL_BW (24 h) was 222 g, the APTT (24 h) was 20.5 s and the Bas (24 h) was 0%. For the same molecule, the Eos (24 h) was 0.8%, the Fbg (24 h) was 302.2 mg/dL and the Hb (24 h) was 12.9 g/dL. For the same molecule, the Ht (24 h) was 38.6%, the Lym (24 h) was 81.8% and the MCH (24 h) was 20.5 pg. For the same molecule, the MCHC (24 h) was 33.3%, the MCV (24 h) was 61.6 fL and the Mono (24 h) was 2.6%. It also gave a Neu (24 h) of 13.8%, a PT (24 h) of 16.3 s and a Plat (24 h) of 111.9 x10_4/uL. For the same molecule, the RBC (24 h) was 627.6 x10_4/ul, the Ret (24 h) was 7.4% and the WBC (24 h) was 75.5 x10_2/uL. It also gave a KIDNEY_L (24 h) of 1 g, a KIDNEY_R (24 h) of 1 g and a KIDNEY_TOTAL (24 h) of 1.9 g. The LIVER (24 h) was 9.6 g, the A/G (24 h) was 1.2 and the ALP (24 h) was 1761 IU/L. It also gave an ALT (24 h) of 45.6 IU/L, an AST (24 h) of 76.8 IU/L and a BUN (24 h) of 15.2 mg/dL. The CRE (24 h) was 0.1 mg/dL, the Ca (24 h) was 10.8 mg/dL and the Cl (24 h) was 106.2 meq/L. The DBIL (24 h) was 0 mg/dL, the GLC (24 h) was 184.8 mg/dL and the IP (24 h) was 7.4 mg/dL. It also gave a K (24 h) of 4.4 meq/L, an LDH (24 h) of 166 IU/L and a Na (24 h) of 144.4 meq/L. It also gave a PL (24 h) of 144 mg/dL, an RALB (24 h) of 3 g/dL and a TBIL (24 h) of 0.01 mg/dL. It also gave a TC (24 h) of 82.4 mg/dL, a TG (24 h) of 93 mg/dL and a TP (24 h) of 5.6 g/dL. It also gave a gamma-GTP (24 h) of 1.2 IU/L.
